Test results as given in patent publication US20240327393A1 (SIRONAX LTD., priority 2021, published 2024).

Tested on: HT-1080 (ATCC, CCL-121) cells
Experiment: HT-1080 cell viability assay with ferroptosis inducer RSL3 (Cell Titer-Glo)
Assay type: cell-based
Settings: Homo sapiens; HT-1080 cells treated with RSL3; 3-fold, 10-point dilution, 1.1 μM highest concentration; Table 2; read-out: EC50 (nM), ferroptosis inhibitory activity
Experimental: Example 2. Determination of EC50 Values in HT-1080 Cell Viability Assay
HT-1080 (ATCC, CCL-121) cells (6000 in 100 μl) were seeded in 96-well plates (Corning) and cultured in a 37° C. incubator with a humidified atmosphere of 5% CO2 for overnight. Cells were then treated with ferroptosis inducer RSL3 (TargetMol) and a 3-fold, 10-point serial dilution series of compounds with 1.1 μM as the highest concentration, […]. Cell viability was assessed using the Cell Titer-Glo Kit (Promega). The luminescence intensity was measured with a microplate reader (Envision, PerkinElmer), and cell viability was calculated by normalizing the data to untreated controls. The EC50 values of the compounds (e.g., Compounds 1-659) were calculated in GraphPad Prism (GraphPad Software, Inc., San Diego, CA, USA). The curves were fitted using a non-linear regression model with a sigmoidal dose response.

| SMILES | EC50 [nM] |
| --- | --- |
| Cc1cc(N2CCC(C(F)(F)F)CC2)cc(C)c1Nc1ccc2c(c1)OCC(=O)N2C [Compound 79, 7-((2,6-dimethyl-4-(4-(trifluoromethyl)piperidin-1-yl)phenyl)amino)-4-methyl-2H-benzo[b][1,4]oxazin-3(4H)-one] | 0.1 to 100 |
| CC1CN(c2ccc(Nc3ccc4c(c3)OCC(=O)N4CCN(C)C)cc2)CC(C)O1 (stereo not drawn) [Compound 80, 4-(2-(dimethylamino)ethyl)-7-((4-(2,6-dimethylmorpholino)phenyl)amino)-2H-benzo[b][1,4]oxazin-3(4H)-one] | 0.1 to 100 |
| CCC1Oc2cc(Nc3ccc(N4CC(C)OC(C)C4)cc3)ccc2N(C)C1=O (stereo not drawn) [Compound 81, 7-((4-(2,6-dimethylmorpholino)phenyl)amino)-2-ethyl-4-methyl-2H-benzo[b][1,4]oxazin-3(4H)-one] | 0.1 to 100 |
| CC(C)(C)c1ccc(Nc2ccc3c(c2)OCC(=O)N3CCO)cc1 [Compound 82, 7-((4-(tert-butyl)phenyl)amino)-4-(2-hydroxyethyl)-2H-benzo[b][1,4]oxazin-3(4H)-one] | 0.1 to 100 |
| O=C1COc2cc(Nc3ccc(N4CCC(C(F)(F)F)CC4)cc3)ccc2N1CCO [Compound 83] | 0.1 to 100 |
| CC1CN(c2ccc(Nc3ccc4c(c3)OCC(=O)N4CCO)cc2)CC(C)O1 (stereo not drawn) [Compound 84, 7-((4-(2,6-dimethylmorpholino)phenyl)amino)-4-(2-hydroxyethyl)-2H-benzo[b][1,4]oxazin-3(4H)-one] | 0.1 to 100 |
| O=C1COc2cc(Nc3ccc(N4CCC(C(F)(F)F)CC4)cc3)ccc2N1 [Compound 85, 7-((4-(4-(trifluoromethyl)piperidin-1-yl)phenyl)amino)-2H-benzo[b][1,4]oxazin-3(4H)-one] | 0.1 to 100 |
| Cc1cc(Nc2ccc3c(c2)OCC(=O)N3C)ccc1N1CCC(C(F)(F)F)CC1 [Compound 86, 4-methyl-7-((3-methyl-4-(4-(trifluoromethyl)piperidin-1-yl)phenyl)amino)-2H-benzo[b][1,4]oxazin-3(4H)-one] | 0.1 to 100 |
| CC1CN(c2ccc(Nc3cc(F)c4c(c3)OCC(=O)N4C)cc2)CC(C)O1 (stereo not drawn) [Compound 87, 7-((4-(2,6-dimethylmorpholino)phenyl)amino)-5-fluoro-4-methyl-2H-benzo[b][1,4]oxazin-3(4H)-one] | 0.1 to 100 |
| CN1C(=O)COc2cc(Nc3ccc(N4CCC(C(F)(F)F)CC4)cc3)cc(F)c21 [Compound 88, 5-fluoro-4-methyl-7-((4-(4-(trifluoromethyl)piperidin-1-yl)phenyl)amino)-2H-benzo[b][1,4]oxazin-3(4H)-one] | 0.1 to 100 |
| CN1C(=O)COc2cc(Nc3ccc(N4CC5CCC(C4)O5)c(F)c3)ccc21 [Compound 89, 7-((4-(8-oxa-3-azabicyclo[3.2.1]octan-3-yl)-3-fluorophenyl)amino)-4-methyl-2H-benzo[b][1,4]oxazin-3(4H)-one] | 0.1 to 100 |
| COc1cc(N2CCC(C(F)(F)F)CC2)ccc1Nc1ccc2c(c1)OCC(=O)N2C [Compound 90, 7-((2-methoxy-4-(4-(trifluoromethyl)piperidin-1-yl)phenyl)amino)-4-methyl-2H-benzo[b][1,4]oxazin-3(4H)-one] | 0.1 to 100 |
| COc1cc(Nc2ccc3c(c2)OCC(=O)N3C)ccc1N1CCC(C(F)(F)F)CC1 [Compound 91, 7-((3-methoxy-4-(4-(trifluoromethyl)piperidin-1-yl)phenyl)amino)-4-methyl-2H-benzo[b][1,4]oxazin-3(4H)-one] | 0.1 to 100 |
| CC1CC(c2ccc(Nc3ccc4c(c3)OCC(=O)N4)cc2)CC(C)O1 (stereo not drawn) [Compound 92, 7-((4-(2,6-dimethyltetrahydro-2H-pyran-4-yl)phenyl)amino)-2H-benzo[b][1,4]oxazin-3(4H)-one] | 0.1 to 100 |
| CN1C(=O)COc2cc(Nc3ccc(N4CC(C)(C)OC(C)(C)C4)cc3)ccc21 [Compound 93, 4-methyl-7-((4-(2,2,6,6-tetramethylmorpholino)phenyl)amino)-2H-benzo[b][1,4]oxazin-3(4H)-one] | 0.1 to 100 |
| CN(C)CCN1C(=O)COc2cc(Nc3ccc(N4CCC(C(F)(F)F)CC4)cc3)ccc21 [Compound 94, 4-(2-(dimethylamino)ethyl)-7-((4-(4-(trifluoromethyl)piperidin-1-yl)phenyl)amino)-2H-benzo[b][1,4]oxazin-3(4H)-one] | 0.1 to 100 |
| COCCN1C(=O)COc2cc(Nc3ccc(N4CC(C)OC(C)C4)cc3)ccc21 (stereo not drawn) [Compound 95, 7-((4-(2,6-dimethylmorpholino)phenyl)amino)-4-(2-methoxyethyl)-2H-benzo[b][1,4]oxazin-3(4H)-one] | 0.1 to 100 |
| Cc1cc(N2CC(C)OC(C)C2)ccc1Nc1ccc2c(c1)OCC(=O)N2 (stereo not drawn) [Compound 96] | 0.1 to 100 |
| CN1C(=O)COc2cc(Nc3ccc(N4C[C@@H]5C[C@H]4CO5)c(F)c3)ccc21 [Compound 97, 7-((4-((1S,4S)-2-oxa-5-azabicyclo[2.2.1]heptan-5-yl)-3-fluorophenyl)amino)-4-methyl-2H-benzo[b][1,4]oxazin-3(4H)-one] | 0.1 to 100 |
| CN1C(=O)COc2cc(Nc3ccc(N4CC5CCC4CO5)c(F)c3)ccc21 (stereo not drawn) [Compound 98, 7-((4-(2-oxa-5-azabicyclo[2.2.2]octan-5-yl)-3-fluorophenyl)amino)-4-methyl-2H-benzo[b][1,4]oxazin-3(4H)-one] | 0.1 to 100 |

Second part, the compound after the results:

| EC50 [nM] | SMILES |
| --- | --- |
| 0.1 to 100 | Cc1c(Nc2ccc3c(c2)OCC(=O)N3C)ccc(N2CCC(C(F)(F)F)CC2)c1F [Compound 63, 7-((3-fluoro-2-methyl-4-(4-(trifluoromethyl)piperidin-1-yl)phenyl)amino)-4-methyl-2H-benzo[b][1,4]oxazin-3(4H)-one] |
| 0.1 to 100 | CC1CC(c2ccc(Nc3ccc4c(c3)OCC(=O)N4C)cc2)CC(C)O1 (stereo not drawn) [Compound 64, 7-((4-(2,6-dimethyltetrahydro-2H-pyran-4-yl)phenyl)amino)-4-methyl-2H-benzo[b][1,4]oxazin-3(4H)-one] |
| 0.1 to 100 | CC1CN(c2ccc3cc(Nc4ccc5c(c4)OCC(=O)N5C)ccc3n2)CC(C)O1 (stereo not drawn) [Compound 65, 7-((2-(2,6-dimethylmorpholino)quinolin-6-yl)amino)-4-methyl-2H-benzo[b][1,4]oxazin-3(4H)-one] |
| 0.1 to 100 | CC1CN(c2ncc(Nc3ccc4c(c3)OCC(=O)N4C)cn2)CC(C)O1 (stereo not drawn) [Compound 66, 7-((2-(2,6-dimethylmorpholino)pyrimidin-5-yl)amino)-4-methyl-2H-benzo[b][1,4]oxazin-3(4H)-one] |
| 0.1 to 100 | CC1CN(c2c(F)cc(Nc3ccc4c(c3)OCC(=O)N4C)cc2F)CC(C)O1 (stereo not drawn) [Compound 67] |
| 0.1 to 100 | CCC1Oc2cc(Nc3ccc(N4CCC(C(F)(F)F)CC4)cc3)ccc2N(C)C1=O (stereo not drawn) [Compound 68, 2-ethyl-4-methyl-7-((4-(4-(trifluoromethyl)piperidin-1-yl)phenyl)amino)-2H-benzo[b][1,4]oxazin-3(4H)-one] |
| 0.1 to 100 | Cc1nc(N2CC(C)OC(C)C2)ccc1Nc1ccc2c(c1)OCC(=O)N2C (stereo not drawn) [Compound 69, 7-((6-(2,6-dimethylmorpholino)-2-methylpyridin-3-yl)amino)-4-methyl-2H-benzo[b][1,4]oxazin-3(4H)-one] |
| 0.1 to 100 | COc1cc(Nc2ccc3c(c2)OCC(=O)N3C)ccc1N1CC(C)OC(C)C1 (stereo not drawn) [Compound 70, 7-((4-(2,6-dimethylmorpholino)-3-methoxyphenyl)amino)-4-methyl-2H-benzo[b][1,4]oxazin-3(4H)-one] |
| 0.1 to 100 | CC1CN(c2ccc3cc(Nc4ccc5c(c4)OCC(=O)N5C)ccc3c2)CC(C)O1 (stereo not drawn) [Compound 71, 7-((6-(2,6-dimethylmorpholino)naphthalen-2-yl)amino)-4-methyl-2H-benzo[b][1,4]oxazin-3(4H)-one] |
| 0.1 to 100 | CN1C(=O)COc2cc(Nc3ccc4cc(N5CCC(C(F)(F)F)CC5)ccc4c3)ccc21 [Compound 72, 4-methyl-7-((6-(4-(trifluoromethyl)piperidin-1-yl)naphthalen-2-yl)amino)-2H-benzo[b][1,4]oxazin-3(4H)-one] |
| 0.1 to 100 | CC1CN(c2ccc(Nc3ccc4c(c3)OCC(=O)N4C)cc2F)CC(C)O1 (stereo not drawn) [Compound 73, 7-((4-(2,6-dimethylmorpholino)-3-fluorophenyl)amino)-4-methyl-2H-benzo[b][1,4]oxazin-3(4H)-one] |
| 0.1 to 100 | CC1CN(c2ccc(Nc3ccc4c(c3)OCC(=O)N4C)c(F)c2)CC(C)O1 (stereo not drawn) [Compound 74, 7-((4-(2,6-dimethylmorpholino)-2-fluorophenyl)amino)-4-methyl-2H-benzo[b][1,4]oxazin-3(4H)-one] |
| 0.1 to 100 | CN1C(=O)COc2cc(Nc3ccc(N4CCC(C(F)(F)F)CC4)cc3)cnc21 [Compound 75, 4-methyl-7-((4-(4-(trifluoromethyl)piperidin-1-yl)phenyl)amino)-2H-pyrido[3,2-b][1,4]oxazin-3(4H)-one] |
| 0.1 to 100 | CC1CN(c2ccc(Nc3cnc4c(c3)OCC(=O)N4C)cc2)CC(C)O1 (stereo not drawn) [Compound 76, 7-((4-(2,6-dimethylmorpholino)phenyl)amino)-4-methyl-2H-pyrido[3,2-b][1,4]oxazin-3(4H)-one] |
| 0.1 to 100 | CN1C(=O)COc2cc(Nc3ccc(N4CCC(C(F)(F)F)CC4)c(F)c3)ccc21 [Compound 77, 7-((3-fluoro-4-(4-(trifluoromethyl)piperidin-1-yl)phenyl)amino)-4-methyl-2H-benzo[b][1,4]oxazin-3(4H)-one] |
| 0.1 to 100 | Cc1cc(N2CCC(C(F)(F)F)CC2)ccc1Nc1ccc2c(c1)OCC(=O)N2C [Compound 78, 4-methyl-7-((2-methyl-4-(4-(trifluoromethyl)piperidin-1-yl)phenyl)amino)-2H-benzo[b][1,4]oxazin-3(4H)-one] |
